“Also recorded” adds a separate entry of the source. Where a SMILES comes first, the peptide text is derived from it. [ ]: non-standard residue; d: D form. The star is where a group is joined. Biotin = O=C1N[C@H]2[C@H](CS[C@H]2CCCCC(=O)*)N1; pY = N[C@@H](Cc1ccc(OP(=O)(O)O)cc1)C(=O)O; Ahx = NCCCCCC(=O)O
How the values were obtained:
[1] = molecular target: T1, STAT3 (Mus musculus, UniProt P42227); assay: Precipitation of STAT3 from BaMR cytosolic homogenates with biotinylated IL-10 receptor peptides; assay type: binding; conditions: for precipitation of / binding to the 92 kD STAT3 protein: biotinylated 12 amino acid peptides, BaMR cytosolic homogenates; for concentration of biotinylated peptide sufficient to precipitate STAT3 (comparable amounts): increasing peptide concentrations, data not shown
T1 construct: Cytosolic homogenates of BaMR cells were precipitated with the biotinylated 12 amino acid peptides; endogenous in cells; host or cells: BaMR (BaF3 pre-B cells transfected with the IL-10 receptor) homogenates
T1 sequence (P42227 whole entry): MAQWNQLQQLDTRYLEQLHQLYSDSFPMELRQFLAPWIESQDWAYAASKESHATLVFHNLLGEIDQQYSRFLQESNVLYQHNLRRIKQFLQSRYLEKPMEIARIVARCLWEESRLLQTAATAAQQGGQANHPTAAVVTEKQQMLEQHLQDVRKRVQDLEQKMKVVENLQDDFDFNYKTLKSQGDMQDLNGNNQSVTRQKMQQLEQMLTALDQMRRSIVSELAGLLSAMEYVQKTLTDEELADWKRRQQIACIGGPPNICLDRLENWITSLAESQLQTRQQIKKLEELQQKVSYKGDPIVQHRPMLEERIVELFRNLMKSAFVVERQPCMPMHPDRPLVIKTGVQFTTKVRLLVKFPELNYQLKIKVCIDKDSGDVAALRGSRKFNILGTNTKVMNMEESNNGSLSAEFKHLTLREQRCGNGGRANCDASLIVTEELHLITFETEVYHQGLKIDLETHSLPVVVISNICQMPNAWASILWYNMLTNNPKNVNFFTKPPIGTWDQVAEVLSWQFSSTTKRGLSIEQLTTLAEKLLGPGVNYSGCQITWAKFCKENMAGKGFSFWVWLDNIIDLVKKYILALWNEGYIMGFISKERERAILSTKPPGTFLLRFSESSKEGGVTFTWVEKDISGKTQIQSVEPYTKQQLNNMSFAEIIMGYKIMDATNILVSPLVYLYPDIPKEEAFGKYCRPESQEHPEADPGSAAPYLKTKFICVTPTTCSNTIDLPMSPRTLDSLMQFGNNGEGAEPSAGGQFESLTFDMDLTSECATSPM
Source text: Aminoterminally biotinylated peptides were synthesized comprising 12 amino acids in which the peptides each contained a different region of the IL-10 receptor intracellular domain containing a tyrosine residue. These peptides corresponded to positions 370 to 381 (SEQ ID NO:26, Gln-Gln-Leu-Gly-Xaa-His-Gln-Asp-Gln-Asp-Asp-Ser), 392-403 (SEQ ID NO:27, Gly-Gln-Pro-Lys-Xaa-Thr-Gln-Asp-Ala-Ser-Asp-Leu), 423 to 434 (SEQ ID NO:24, Thr-Phe-Gln-Gly-Xaa-Gln-Lys-Gln-Thr-Arg-Trp-Lys) and 473 to 484 (SEQ ID NO:25, Leu-Ala-Ala-Gly-Xaa-Leu-Lys-Gln-Glu-Ser-Gln-Gly) in which the amino acids identified in the sequence as Xaa in positions 374, 396, 427, and 477 of the respectively peptides are phosphorylated tyrosines. In addition, the sequences 423 to 434 (SEQ ID NO:28, Thr-Phe-Gln-Gly-Tyr-Gln-Lys-Gln-Thr-Arg-Trp-Lys) and 473 to 484 (SEQ ID NO:29, Leu-Ala-Ala-Gly-Tyr-Leu-Lys-Gln-Glu-Ser-Gln-Gly) contained the non-phosphorylated tyrosines in the positions 427, and 477 of the IL-10 receptor intracellular domain. Cytosolic homogenates of BaMR cells were precipitated with the biotinylated 12 amino acid peptides. […] In contrast to this, no binding to the STAT3 transcription factor occurred with the peptides containing phosphorylated tyrosines in positions 374 (SEQ ID NO:26) and 396 (SEQ ID NO:27), the peptides containing non-phosphorylated tyrosines in positions 427 (SEQ ID NO:28) and 477 (SEQ ID NO:29) and the phosphorylated peptide corresponding to the amino acid sequences 436 to 447 of the IFNγ receptor α chain intracellular domain (FIG. 10). Whereas both the 427 and the 477 phosphopeptides precipitated the STAT3 transcription factor, none of the phosphopeptides coprecipitated STAT1.

[2] = molecular target: T1, STAT3; assay: Inhibition of IL-10 dependent STAT3 phosphorylation in BaMR cell homogenates; assay type: biochemical; conditions: for effect on IL-10 dependent phosphorylation of STAT3: peptide 100 μM, 45 minutes at 4° C., then 100 ng/ml IL-10
Procedure: BaMR cell homogenates were prepared in a Dounce homogenizer and 18 μg of total protein was incubated without or with IL-10 at a concentration of 100 ng/ml for 15 minutes at 37° C. (FIG. 11, lanes 1 and 2). In lanes 3-8, 18 μg total protein of the BaMR homogenates was incubated for 45 minutes at 4° C. with a 100 μM concentration of the IL-10-receptor peptides having phosphorylated tyrosines at positions 374 (SEQ ID NO:26), 396 (SEQ ID NO:27), 427(SEQ ID NO:24), and 477(SEQ ID NO:25) (lanes 3-6) or 100 μM concentration of the non phosphorylated peptides having tyrosines at positions 427 (SEQ ID NO:28) and 477 (SEQ ID NO:29). Reaction mixtures were stimulated with 100 ng/ml IL-10 as described above and homogenates were precipitated with STAT3 or STAT1 specific antisera. Precipitates were blotted with phosphotyrosine specific antibody RC-20 and reactions developed using the ECL-system. Blots were stripped and reblotted with STAT3 and STAT1 specific antisera, respectively.

[3] = system: IFNγ receptor α chain; assay: IFNγ dependent tyrosine phosphorylation of the IFNγ receptor α chain in Colo-205 cells (4G10 western blot); assay type: cell-based, human; conditions: Colo-205 treated for 5 minutes
Source text: For these experiments, Colo-205, a human adenocarcinoma cell line obtained from the ATCC, was used because it was known to express a high number of IFNγ receptors (10,000 receptors/cell) and has been well characterized with regard to both biologic responsiveness to IFNγ and IFNγ receptor […] phosphorylation (Hershey and Schreiber, 1989; Hershey et al., 1990 both of which are incorporated by reference). Colo-205 cells (5-10×10^7) were resuspended in one ml of PBS-10% FCS and were then incubated at 37° C., either in the presence or absence of rHuIFNγ (10,000 IRU). Purified recombinant human IFNγ was provided by Dr. Susan Kramer of Genentech, Inc. (South San Francisco, Calif.). […] Purified rHuIFNγ was radioiodinated, using Bolton Hunter reagent (ICN Chemicals, Radioisotope Division, Irvine, Calif.) to specific activities of 6.5-17.8 μCi/μg as described in Celada et al. (J Clin Invest 76:2196-2205, 1985 which is incorporated by reference). The reaction was stopped by adding 4 mls of ice-cold PBS. Cells were pelleted, washed once in ice-cold PBS, and then lysed in one ml of lysis buffer (25 mM Tris-HCl (pH 8.0), 1% NP-40, 150 mM NaCl, 1 mM sodium orthovanadate, 10 mM NaF, 1 mM PMSF, 5mM iodoacetamide, […] leupeptin and aprotinin). Solubilized cells were centrifuged at 15,000×g to remove cell nuclei and the supernatants were then incubated with 10 μg of GIR-94 for 30 minutes at 4° C. Protein G sepharose was added to the reaction mixture and the incubation continued for an additional 30 minutes. […]
To determine the amount of receptor precipitated at each time point, aliquots from each immunoprecipitate were subjected to western blot analysis using a monoclonal antibody (GIR-94, a murine antibody IgG2b) that is specific for the human IFNγ receptor extracellular domain. In the absence of added IFNγ, no tyrosine phosphorylated receptor was detected (FIG. 1, lane 1). […]

Row | Compound | precipitation of / binding to the 92 kD STAT3 protein [1] | further results
1 | CC(C)C[C@H](NC(=O)[C@@H](NC(=O)[C@H](Cc1c[nH]cn1)NC(=O)[C@@H]1CCCN1C(=O)[C@H](CCCCN)NC(=O)[C@H](CC(=O)O)NC(=O)[C@H](Cc1ccc(OP(=O)(O)O)cc1)NC(=O)CNC(=O)[C@H](Cc1ccccc1)NC(=O)[C@H](CO)NC(=O)[C@@H](NC(=O)CCCCCNC(=O)CCCC[C@@H]1SC[C@@H]2NC(=O)N[C@@H]21)[C@@H](C)O)C(C)C)C(=O)N[C@H](C(=O)O)C(C)C [SEQ ID NO:4, Biotin-TSFGY-PO4 DKPHVLV] ({Biotin-Ahx}-TSFG[pY]DKPHVLV-OH) | no binding | 
2 | Leu-Ala-Ala-Gly-Xaa-Leu-Lys-Gln-Glu-Ser-Gln-Gly [SEQ ID NO:25] | specifically precipitated; also recorded: coprecipitated | concentration of biotinylated peptide sufficient to precipitate STAT3 (comparable amounts) [1]: 4 to 20 µM; effect on IL-10 dependent phosphorylation of STAT3 [2]: specifically inhibited
3 | Thr-Phe-Gln-Gly-Xaa-Gln-Lys-Gln-Thr-Arg-Trp-Lys [SEQ ID NO:24] | specifically precipitated; also recorded: coprecipitated | concentration of biotinylated peptide sufficient to precipitate STAT3 (comparable amounts) [1]: 0.8 µM; potency in inhibiting STAT3 phosphorylation relative to SEQ ID NO:25 ([2]; concentration-dependent inhibition, FIG. 12): 5 to 10 fold; effect on IL-10 dependent phosphorylation of STAT3 [2]: specifically inhibited
4 | rHuIFNγ: Purified recombinant human IFNγ provided by Genentech, Inc. |  | IFNγ dose at which IFNγ receptor tyrosine phosphorylation reached maximal levels [3]: 10,000 IRU/ml; IFNγ dose at which IFNγ receptor tyrosine phosphorylation was detected [3]: 100 IRU/ml

More lines, main results first:

Row | precipitation of / binding to the 92 kD STAT3 protein [1] | Compound | further results
5 | no binding | CC(C)C[C@H](NC(=O)[C@H](CCC(N)=O)NC(=O)[C@H](CCC(N)=O)NC(=O)CCCCCNC(=O)CCCC[C@@H]1SC[C@@H]2NC(=O)N[C@@H]21)C(=O)NCC(=O)N[C@@H](Cc1ccc(OP(=O)(O)O)cc1)C(=O)N[C@@H](Cc1c[nH]cn1)C(=O)N[C@@H](CCC(N)=O)C(=O)N[C@@H](CC(=O)O)C(=O)N[C@@H](CCC(N)=O)C(=O)N[C@@H](CC(=O)O)C(=O)N[C@@H](CC(=O)O)C(=O)N[C@@H](CO)C(=O)O [SEQ ID NO:26, Gln-Gln-Leu-Gly-Xaa-His-Gln-Asp-Gln-Asp-Asp-Ser] ({Biotin-Ahx}-QQLG[pY]HQDQDDS-OH) | 
6 | no binding | CC(C)C[C@H](NC(=O)[C@H](CC(=O)O)NC(=O)[C@H](CO)NC(=O)[C@H](C)NC(=O)[C@H](CC(=O)O)NC(=O)[C@H](CCC(N)=O)NC(=O)[C@@H](NC(=O)[C@H](Cc1ccc(OP(=O)(O)O)cc1)NC(=O)[C@H](CCCCN)NC(=O)[C@@H]1CCCN1C(=O)[C@H](CCC(N)=O)NC(=O)CNC(=O)CCCCCNC(=O)CCCC[C@@H]1SC[C@@H]2NC(=O)N[C@@H]21)[C@@H](C)O)C(=O)O [SEQ ID NO:27, Gly-Gln-Pro-Lys-Xaa-Thr-Gln-Asp-Ala-Ser-Asp-Leu] ({Biotin-Ahx}-GQPK[pY]TQDASDL-OH) | 
7 | no binding | C[C@@H](O)[C@H](NC(=O)CCCCCNC(=O)CCCC[C@@H]1SC[C@@H]2NC(=O)N[C@@H]21)C(=O)N[C@@H](Cc1ccccc1)C(=O)N[C@@H](CCC(N)=O)C(=O)NCC(=O)N[C@@H](Cc1ccc(O)cc1)C(=O)N[C@@H](CCC(N)=O)C(=O)N[C@@H](CCCCN)C(=O)N[C@@H](CCC(N)=O)C(=O)N[C@H](C(=O)N[C@@H](CCCNC(=N)N)C(=O)N[C@@H](Cc1c[nH]c2ccccc12)C(=O)N[C@@H](CCCCN)C(=O)O)[C@@H](C)O [SEQ ID NO:28, Thr-Phe-Gln-Gly-Tyr-Gln-Lys-Gln-Thr-Arg-Trp-Lys] ({Biotin-Ahx}-TFQGYQKQTRWK-OH) | 
8 | no binding | CC(C)C[C@H](NC(=O)CCCCCNC(=O)CCCC[C@@H]1SC[C@@H]2NC(=O)N[C@@H]21)C(=O)N[C@@H](C)C(=O)N[C@@H](C)C(=O)NCC(=O)N[C@@H](Cc1ccc(O)cc1)C(=O)N[C@@H](CC(C)C)C(=O)N[C@@H](CCCCN)C(=O)N[C@@H](CCC(N)=O)C(=O)N[C@@H](CCC(=O)O)C(=O)N[C@@H](CO)C(=O)N[C@@H](CCC(N)=O)C(=O)NCC(=O)O [SEQ ID NO:29, Leu-Ala-Ala-Gly-Tyr-Leu-Lys-Gln-Glu-Ser-Gln-Gly] ({Biotin-Ahx}-LAAGYLKQESQG-OH) | 

Reference: patent US5731155A, “Compositions for inhibition of intracellular transcription factors and methods therefor” (Washington University, priority 1996, dated 1998)
